Assay results as given in patent US20240066131A1 (Protagonist Therapeutics, Inc., priority 2020, published 2024).
Like-named read-outs stand apart in the source and are kept apart here. Starred links: 1 amine or outer side, 2 acyl side, 3 side chain; linkers in the order of their positions; H or OH if unused. Non-standard residues stand in square brackets, D forms with d. Residues, ends and D or L forms follow the SMILES beside them. Groups on a side chain read outwards from the residue. *: point of attachment. X14 = O=C(CN(CCC(c1ccccc1)c1ccccc1)[*:1])[*:2]; C18 diacid = O=C(O)CCCCCCCCCCCCCCCCC(=O)*; X15 = O=C([C@H](CCc1nnn[nH]1)N[*:1])[*:2]; X8 = O=C([C@H](CCc1nn[nH]n1)N[*:1])[*:2]; Dip = N[C@H](C(=O)O)C(c1ccccc1)c1ccccc1; His(τ-Me) = Cn1cnc(C[C@H](N)C(=O)O)c1; Palmitoyl = CCCCCCCCCCCCCCCC(=O)*; Myristoyl = CCCCCCCCCCCCCC(=O)*; β3hF = N[C@H](CC(=O)O)Cc1ccccc1; NMeK = CN[C@@H](CCCCN)C(=O)O; Lauroyl = CCCCCCCCCCCC(=O)*; Isovaleryl = CC(C)CC(=O)*; Octanoyl = CCCCCCCC(=O)*; AEEA = NCCOCCOCC(=O)O; NHBn = c1ccc(CN*)cc1; Ahx = NCCCCCC(=O)O; βAla = NCCC(=O)O

Target: T1, ferroportin (Homo sapiens, UniProt Q9NP59)
T1 sequence (Q9NP59 1-571): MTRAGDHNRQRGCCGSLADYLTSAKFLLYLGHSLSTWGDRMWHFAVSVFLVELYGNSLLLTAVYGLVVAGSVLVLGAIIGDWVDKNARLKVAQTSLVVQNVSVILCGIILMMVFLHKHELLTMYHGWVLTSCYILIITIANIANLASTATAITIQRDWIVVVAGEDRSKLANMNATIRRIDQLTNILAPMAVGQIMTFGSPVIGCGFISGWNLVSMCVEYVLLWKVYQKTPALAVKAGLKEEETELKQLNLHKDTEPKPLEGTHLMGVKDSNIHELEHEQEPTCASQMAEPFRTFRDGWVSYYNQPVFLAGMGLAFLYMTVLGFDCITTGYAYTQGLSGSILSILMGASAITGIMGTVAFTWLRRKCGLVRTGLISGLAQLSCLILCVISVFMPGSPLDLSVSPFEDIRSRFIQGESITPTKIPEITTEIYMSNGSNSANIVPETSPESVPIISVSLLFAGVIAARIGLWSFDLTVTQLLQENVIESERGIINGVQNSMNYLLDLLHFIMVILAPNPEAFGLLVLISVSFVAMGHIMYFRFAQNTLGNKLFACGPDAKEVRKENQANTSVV
Test: FPN activity assay: internalization/degradation of ferroportin-GFP in stably transfected HEK293 cells (loss of GFP fluorescence)
Assay type: cell-based
Experimental: Following internalization, the ferroporin protein is degraded.
A retro inverse peptide is a peptide with a reversed sequence in all D amino acids. An example is that Hy-Glu-Thr-His-NH2 becomes Hy-DHis-DThr-DGlu-NH2. The EC50 of these reference compounds for ferroportin internalization/degradation was determined according to the FPN activity assay described above. These peptides served as control standards.

[1] = ferroportin-GFP HEK293 cells, compound incubated at least 18 hours, read-out: FPN IC50

Row | Compound | DC50 [1] | DC50 (Table 6A, read-out: FPN EC50) | other results
1 | CC[C@H](C)[C@H](NC(=O)[C@H](C)NC(=O)[C@@H]1CCCN1C(=O)[C@@H](NC(=O)[C@H](Cc1c[nH]cn1)NC(=O)[C@@H](NC(=O)[C@H](CCCCNC(=O)COCCOCCNC(=O)COCCOCCNC(=O)CCCCCNC(=O)CCCCCCCCCCCCCCCCC(=O)O)NC(C)=O)[C@@H](C)O)C(c1ccccc1)c1ccccc1)C(=O)N[C@H](CCCCN)C(=O)N[C@H](CC(N)=O)Cc1ccccc1 [compound 234] (Ac-K([AEEA-AEEA-Ahx-C18 diacid])TH[Dip]PAI[dK][β3hF]-NH2) | > 3000 nM |  | 
2 | CCCCCCCC(=O)NCCCCCC(=O)NCCCC[C@H](NC(=O)[C@@H](NC(=O)[C@H](C)NC(=O)[C@@H]1CCCN1C(=O)[C@@H](NC(=O)[C@H](Cc1c[nH]cn1)NC(=O)[C@@H](NC(=O)[C@H](CCC(=O)O)NC(=O)CC(C)C)[C@@H](C)O)C(c1ccccc1)c1ccccc1)[C@@H](C)CC)C(=O)N[C@H](CC(N)=O)Cc1ccccc1 [compound 103] (Isovaleryl-ETH[Dip]PAIK([Ahx-Octanoyl])[β3hF]-NH2) |  | 162 nM | 
3 | CCCCCCCCCCCCCCCC(=O)NCCC(=O)NCCC(=O)NCCCC[C@H](NC(=O)[C@@H](NC(=O)[C@H](C)NC(=O)[C@@H]1CCCN1C(=O)[C@@H](NC(=O)[C@H](Cc1c[nH]cn1)NC(=O)[C@@H](NC(=O)[C@H](CCC(=O)O)NC(=O)CC(C)C)[C@@H](C)O)C(c1ccccc1)c1ccccc1)[C@@H](C)CC)C(=O)N[C@H](CC(N)=O)Cc1ccccc1 [compound 99] (Isovaleryl-ETH[Dip]PAIK([βAla-βAla-Palmitoyl])[β3hF]-NH2) |  | 103 nM | 
4 | CC[C@H](C)[C@H](NC(=O)[C@H](C)NC(=O)[C@@H]1CCCN1C(=O)[C@@H](NC(=O)[C@H](Cc1cn(C)cn1)NC(=O)[C@@H](NC(=O)[C@H](CCc1nn[nH]n1)NC(=O)CC(C)C)[C@@H](C)O)C(c1ccccc1)c1ccccc1)C(=O)N[C@@H](CCCCNC(C)=O)C(=O)N[C@H](CC(=O)N[C@H](CCCCN)C(=O)N[C@@H](C)C(N)=O)Cc1ccccc1 [compound 40] (Isovaleryl-[X8]T[His(τ-Me)][Dip]PAIK(Ac)[β3hF][dK]A-NH2) |  | > 3000 nM | 
5 | CC[C@H](C)[C@H](NC(=O)[C@H](C)NC(=O)[C@@H]1CCCN1C(=O)[C@@H](NC(=O)[C@H](Cc1c[nH]cn1)NC(=O)[C@@H](NC(=O)[C@H](CCc1nnn[nH]1)NC(=O)CC(C)C)[C@@H](C)O)C(c1ccccc1)c1ccccc1)C(=O)N[C@@H](CCCCNC(C)=O)C(=O)N[C@H](CC(=O)N[C@H](CCCCN)C(=O)N[C@@H](C)C(N)=O)Cc1ccccc1 [compound 38] (Isovaleryl-[X15]TH[Dip]PAIK(Ac)[β3hF][dK]A-NH2) |  | 117 nM | 
6 | CCCCCCCCCCCCCC(=O)NCCCCCC(=O)NCCCC[C@H](NC(=O)[C@@H](NC(=O)[C@H](C)NC(=O)[C@@H]1CCCN1C(=O)[C@H](Cc1ccccc1)NC(=O)[C@H](Cc1c[nH]cn1)NC(=O)[C@@H](NC(=O)[C@H](CCC(=O)O)NC(=O)CC(C)C)[C@@H](C)O)[C@@H](C)CC)C(=O)N[C@@H](Cc1ccccc1)C(=O)N[C@@H](CCC(=O)O)C(=O)N1CCC[C@H]1C(=O)N[C@@H](CCCNC(=N)N)C(=O)N[C@H](CO)C(N)=O [compound 247] (Isovaleryl-ETHFPAIK([Ahx-Myristoyl])FEPR[dS]-NH2) | 1160 nM |  | 
7 | CCCCCCCCCCCCCC(=O)NCCCCCC(=O)NCCCC[C@H](NC(=O)[C@@H](NC(=O)[C@H](C)NC(=O)[C@@H]1CCCN1C(=O)[C@H](Cc1ccccc1)NC(=O)[C@H](Cc1c[nH]cn1)NC(=O)[C@@H](NC(=O)[C@H](CCC(=O)O)NC(=O)CC(C)C)[C@@H](C)O)[C@@H](C)CC)C(=O)N[C@@H](Cc1ccccc1)C(=O)N[C@@H](CCC(=O)O)C(=O)N1CCC[C@H]1C(=O)N[C@@H](CCCNC(=N)N)C(=O)N[C@@H](CO)C(=O)N[C@@H](CCCCN)C(=O)NCC(=O)N[C@@H](C)C(=O)N[C@H](CCCCN)C(N)=O [compound 245] (Isovaleryl-ETHFPAIK([Ahx-Myristoyl])FEPRSKGA[dK]-NH2) | 1160 nM |  | 
8 | CCCCCCCCCCCCCCCC(=O)NCCCCCC(=O)NCCCC[C@H](NC(=O)CC(C)C)C(=O)N[C@H](C(=O)N[C@@H](Cc1c[nH]cn1)C(=O)N[C@H](C(=O)N1CCC[C@H]1C(=O)N[C@@H](C)C(=O)N[C@H](C(=O)N[C@H](CCCCN)C(=O)N[C@H](CC(N)=O)Cc1ccccc1)[C@@H](C)CC)C(c1ccccc1)c1ccccc1)[C@@H](C)O [compound 203] (Isovaleryl-K([Ahx-Palmitoyl])TH[Dip]PAI[dK][β3hF]-NH2) | 654 nM |  | 
9 | CC[C@H](C)[C@H](NC(=O)[C@@H](NC(=O)[C@@H]1CCCN1C(=O)[C@@H](NC(=O)[C@H](Cc1c[nH]cn1)NC(=O)[C@@H](NC(=O)[C@H](CCC(=O)O)NC(=O)CNCC(=O)O)[C@@H](C)O)C(c1ccccc1)c1ccccc1)[C@@H](C)CC)C(=O)N[C@@H](CCCCNC(C)=O)C(=O)N[C@H](CC(N)=O)Cc1ccccc1 [compound 71] |  | > 5000 nM | 
10 | CCCCCCCCCCCCCCCC(=O)NCCCCCC(=O)NCCCC[C@H](NC(=O)[C@@H](NC(=O)[C@H](C)NC(=O)[C@@H]1CCCN1C(=O)CN(CCC(c1ccccc1)c1ccccc1)C(=O)[C@H](Cc1c[nH]cn1)NC(=O)[C@@H](NC(=O)[C@H](CCC(=O)O)NC(=O)CC(C)C)[C@@H](C)O)[C@@H](C)CC)C(=O)N[C@H](CC(N)=O)Cc1ccccc1 [compound 89] (Isovaleryl-ETH[X14]PAIK([Ahx-Palmitoyl])[β3hF]-NH2) |  |  | DC50 (read-out: FPN EC50, Table 6A): > 3000 nM

More lines, main results first:

Row | DC50 [1] | DC50 (Table 6A, read-out: FPN EC50) | Compound | other results
11 | 1070 nM |  | CCCCCCCCCCCCCC(=O)NCCCCCC(=O)NCCCC[C@H](NC(=O)[C@@H](NC(=O)[C@H](C)NC(=O)[C@@H]1CCCN1C(=O)[C@H](Cc1ccccc1)NC(=O)[C@H](Cc1c[nH]cn1)NC(=O)[C@@H](NC(=O)[C@H](CCC(=O)O)NC(=O)CC(C)C)[C@@H](C)O)[C@@H](C)CC)C(=O)N[C@@H](Cc1ccccc1)C(=O)N[C@@H](CCC(=O)O)C(=O)N1CCC[C@H]1C(=O)N[C@@H](CCCNC(=N)N)C(=O)N[C@@H](CO)C(=O)N[C@@H](CCCCN)C(=O)NCC(=O)N[C@H](C)C(N)=O [compound 246] (Isovaleryl-ETHFPAIK([Ahx-Myristoyl])FEPRSKG[dA]-NH2) | 
12 |  | 162 nM | CCCCCCCCCCCCCCCC(=O)NCCCCCC(=O)NCCCC[C@H](NC(=O)[C@@H](NC(=O)[C@H](C)NC(=O)[C@@H]1CCCN1C(=O)[C@@H](NC(=O)[C@H](Cc1c[nH]cn1)NC(=O)[C@@H](NC(=O)[C@H](CCC(=O)O)NC(=O)CC(C)C)[C@@H](C)O)C(c1ccccc1)c1ccccc1)[C@@H](C)CC)C(=O)NCc1ccccc1 [compound 52] (Isovaleryl-ETH[Dip]PAIK([Ahx-Palmitoyl])-NHBn) | 
13 | > 3000 nM |  | CCCCCCCCCCCCCCCC(=O)NCCCCCC(=O)NCCCC[C@H](NC(C)=O)C(=O)N[C@H](C(=O)N[C@@H](Cc1c[nH]cn1)C(=O)N[C@H](C(=O)N1CCC[C@H]1C(=O)N[C@@H](C)C(=O)N[C@H](C(=O)N[C@H](CCCCN)C(=O)N[C@H](CC(N)=O)Cc1ccccc1)[C@@H](C)CC)C(c1ccccc1)c1ccccc1)[C@@H](C)O [compound 201] (Ac-K([Ahx-Palmitoyl])TH[Dip]PAI[dK][β3hF]-NH2) | 
14 |  | 109 nM | CCCCCCCCCCCC(=O)NCCCCCC(=O)NCCCC[C@H](NC(=O)[C@@H](NC(=O)[C@H](C)NC(=O)[C@@H]1CCCN1C(=O)[C@@H](NC(=O)[C@H](Cc1c[nH]cn1)NC(=O)[C@@H](NC(=O)[C@H](CCC(=O)O)NC(=O)CC(C)C)[C@@H](C)O)C(c1ccccc1)c1ccccc1)[C@@H](C)CC)C(=O)N[C@H](CC(N)=O)Cc1ccccc1 [compound 105] (Isovaleryl-ETH[Dip]PAIK([Ahx-Lauroyl])[β3hF]-NH2) | 
15 |  | > 3000 nM | CC[C@H](C)[C@H](NC(=O)[C@H](C)NC(=O)[C@@H]1CCCN1C(=O)[C@@H](NC(=O)[C@H](Cc1cn(C)cn1)NC(=O)[C@@H](NC(=O)[C@H](CCC(=O)O)NC(=O)CC(C)C)[C@@H](C)O)C(c1ccccc1)c1ccccc1)C(=O)N[C@@H](CCCCNC(C)=O)C(=O)N[C@H](CC(=O)N[C@H](CCCCN)C(=O)N[C@@H](C)C(N)=O)Cc1ccccc1 [compound 36] (Isovaleryl-ET[His(τ-Me)][Dip]PAIK(Ac)[β3hF][dK]A-NH2) | 
16 |  | 31.9 nM | CCCCCCCCCCCCCCCC(=O)NCCCCCC(=O)NCCCC[C@H](NC(=O)[C@@H](NC(=O)[C@H](C)NC(=O)[C@@H]1CCCN1C(=O)[C@@H](NC(=O)[C@H](Cc1c[nH]cn1)NC(=O)[C@@H](NC(=O)[C@H](CCC(=O)O)NC(=O)CC(C)C)[C@@H](C)O)C(c1ccccc1)c1ccccc1)[C@@H](C)CC)C(=O)N[C@H](CC(N)=O)Cc1ccccc1 [SEQ ID No. 9, Isovaleric Acid-E-T-H-[Dpa]-P-A-I-[Lys(Ahx_Palm)]-[bhPhe]-NH2] (Isovaleryl-ETH[Dip]PAIK([Ahx-Palmitoyl])[β3hF]-NH2) | 
17 |  | 103 nM | CCCCCCCCCCCCCCCC(=O)NCCCCCC(=O)NCCCC[C@H](NC(=O)C[C@H](Cc1ccccc1)NC(=O)[C@H](CCCCN)N(C)C(=O)[C@@H](NC(=O)[C@H](C)NC(=O)[C@@H]1CCCN1C(=O)[C@@H](NC(=O)[C@H](Cc1c[nH]cn1)NC(=O)[C@@H](NC(=O)[C@H](CC(C)C)NC(=O)CC(C)C)[C@@H](C)O)C(c1ccccc1)c1ccccc1)[C@@H](C)CC)C(N)=O [compound 46] (Isovaleryl-LTH[Dip]PAI[NMeK][β3hF]K([Ahx-Palmitoyl])-NH2) | 
